One compound from paper PMC11864979, “First-in-class ultralong-target-residence-time p38α inhibitors as a mitosis-targeted therapy for colorectal cancer” (Nature Cancer, 2025) can be followed below.

Experiment in all cases: selectivity profiling in a panel of 340 wild-type kinases (Reaction Biology Europe)
Common to all, as to type: binding

For experiment [1], the target named is T1, 340 wild-type kinases (Homo sapiens, UniProt Q9P289).
T1 construct: purchased Reaction Biology Europe

In experiment [2] the target is T2, 340 wild-type kinases (Homo sapiens, UniProt Q9H2K8).
T2 construct: purchased Reaction Biology Europe
T2 sequence (Q9H2K8 1-898): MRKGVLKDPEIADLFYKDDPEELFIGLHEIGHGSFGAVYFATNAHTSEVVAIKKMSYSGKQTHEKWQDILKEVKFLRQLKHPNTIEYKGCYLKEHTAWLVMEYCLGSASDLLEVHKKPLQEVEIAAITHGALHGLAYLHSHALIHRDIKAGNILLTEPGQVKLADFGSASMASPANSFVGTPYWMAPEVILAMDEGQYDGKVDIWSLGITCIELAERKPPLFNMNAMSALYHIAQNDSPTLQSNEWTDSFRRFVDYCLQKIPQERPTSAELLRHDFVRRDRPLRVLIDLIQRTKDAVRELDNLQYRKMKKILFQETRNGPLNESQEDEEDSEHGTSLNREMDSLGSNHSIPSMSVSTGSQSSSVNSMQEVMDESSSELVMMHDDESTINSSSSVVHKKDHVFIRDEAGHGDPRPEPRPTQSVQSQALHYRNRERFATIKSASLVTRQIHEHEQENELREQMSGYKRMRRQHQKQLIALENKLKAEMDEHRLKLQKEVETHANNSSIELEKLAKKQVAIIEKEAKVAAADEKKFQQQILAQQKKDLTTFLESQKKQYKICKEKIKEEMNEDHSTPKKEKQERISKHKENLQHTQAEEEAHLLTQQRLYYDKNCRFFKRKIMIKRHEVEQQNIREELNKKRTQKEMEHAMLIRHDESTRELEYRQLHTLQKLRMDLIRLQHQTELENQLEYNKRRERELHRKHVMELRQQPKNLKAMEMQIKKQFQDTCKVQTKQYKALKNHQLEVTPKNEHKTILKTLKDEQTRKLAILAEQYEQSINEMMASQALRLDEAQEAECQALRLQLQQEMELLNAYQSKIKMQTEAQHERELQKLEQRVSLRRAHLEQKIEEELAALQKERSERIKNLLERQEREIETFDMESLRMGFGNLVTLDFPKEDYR

Experiment [3] has as its target T3, 340 wild-type kinases (Homo sapiens, UniProt Q9H093).
T3 construct: purchased Reaction Biology Europe
T3 sequence (Q9H093 1-628): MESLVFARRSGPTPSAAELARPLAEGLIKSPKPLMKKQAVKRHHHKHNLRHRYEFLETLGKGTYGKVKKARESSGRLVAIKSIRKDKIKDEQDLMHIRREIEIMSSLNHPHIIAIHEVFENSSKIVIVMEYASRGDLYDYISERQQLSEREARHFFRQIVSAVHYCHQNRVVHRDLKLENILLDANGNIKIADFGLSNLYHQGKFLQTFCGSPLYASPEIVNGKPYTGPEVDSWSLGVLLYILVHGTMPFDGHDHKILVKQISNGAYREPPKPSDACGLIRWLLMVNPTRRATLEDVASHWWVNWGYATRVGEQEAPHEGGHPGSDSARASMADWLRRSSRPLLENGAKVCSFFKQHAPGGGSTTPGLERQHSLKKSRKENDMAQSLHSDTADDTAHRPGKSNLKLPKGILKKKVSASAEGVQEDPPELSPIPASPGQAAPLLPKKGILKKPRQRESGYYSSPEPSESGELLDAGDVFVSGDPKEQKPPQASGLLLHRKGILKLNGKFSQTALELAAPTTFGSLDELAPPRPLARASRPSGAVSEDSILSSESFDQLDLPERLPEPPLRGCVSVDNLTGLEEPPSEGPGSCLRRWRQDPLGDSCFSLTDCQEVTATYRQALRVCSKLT

The target in experiment [4] is T4, 340 wild-type kinases (Homo sapiens, UniProt Q9Y5S2).
T4 construct: purchased Reaction Biology Europe
T4 sequence (Q9Y5S2 whole entry): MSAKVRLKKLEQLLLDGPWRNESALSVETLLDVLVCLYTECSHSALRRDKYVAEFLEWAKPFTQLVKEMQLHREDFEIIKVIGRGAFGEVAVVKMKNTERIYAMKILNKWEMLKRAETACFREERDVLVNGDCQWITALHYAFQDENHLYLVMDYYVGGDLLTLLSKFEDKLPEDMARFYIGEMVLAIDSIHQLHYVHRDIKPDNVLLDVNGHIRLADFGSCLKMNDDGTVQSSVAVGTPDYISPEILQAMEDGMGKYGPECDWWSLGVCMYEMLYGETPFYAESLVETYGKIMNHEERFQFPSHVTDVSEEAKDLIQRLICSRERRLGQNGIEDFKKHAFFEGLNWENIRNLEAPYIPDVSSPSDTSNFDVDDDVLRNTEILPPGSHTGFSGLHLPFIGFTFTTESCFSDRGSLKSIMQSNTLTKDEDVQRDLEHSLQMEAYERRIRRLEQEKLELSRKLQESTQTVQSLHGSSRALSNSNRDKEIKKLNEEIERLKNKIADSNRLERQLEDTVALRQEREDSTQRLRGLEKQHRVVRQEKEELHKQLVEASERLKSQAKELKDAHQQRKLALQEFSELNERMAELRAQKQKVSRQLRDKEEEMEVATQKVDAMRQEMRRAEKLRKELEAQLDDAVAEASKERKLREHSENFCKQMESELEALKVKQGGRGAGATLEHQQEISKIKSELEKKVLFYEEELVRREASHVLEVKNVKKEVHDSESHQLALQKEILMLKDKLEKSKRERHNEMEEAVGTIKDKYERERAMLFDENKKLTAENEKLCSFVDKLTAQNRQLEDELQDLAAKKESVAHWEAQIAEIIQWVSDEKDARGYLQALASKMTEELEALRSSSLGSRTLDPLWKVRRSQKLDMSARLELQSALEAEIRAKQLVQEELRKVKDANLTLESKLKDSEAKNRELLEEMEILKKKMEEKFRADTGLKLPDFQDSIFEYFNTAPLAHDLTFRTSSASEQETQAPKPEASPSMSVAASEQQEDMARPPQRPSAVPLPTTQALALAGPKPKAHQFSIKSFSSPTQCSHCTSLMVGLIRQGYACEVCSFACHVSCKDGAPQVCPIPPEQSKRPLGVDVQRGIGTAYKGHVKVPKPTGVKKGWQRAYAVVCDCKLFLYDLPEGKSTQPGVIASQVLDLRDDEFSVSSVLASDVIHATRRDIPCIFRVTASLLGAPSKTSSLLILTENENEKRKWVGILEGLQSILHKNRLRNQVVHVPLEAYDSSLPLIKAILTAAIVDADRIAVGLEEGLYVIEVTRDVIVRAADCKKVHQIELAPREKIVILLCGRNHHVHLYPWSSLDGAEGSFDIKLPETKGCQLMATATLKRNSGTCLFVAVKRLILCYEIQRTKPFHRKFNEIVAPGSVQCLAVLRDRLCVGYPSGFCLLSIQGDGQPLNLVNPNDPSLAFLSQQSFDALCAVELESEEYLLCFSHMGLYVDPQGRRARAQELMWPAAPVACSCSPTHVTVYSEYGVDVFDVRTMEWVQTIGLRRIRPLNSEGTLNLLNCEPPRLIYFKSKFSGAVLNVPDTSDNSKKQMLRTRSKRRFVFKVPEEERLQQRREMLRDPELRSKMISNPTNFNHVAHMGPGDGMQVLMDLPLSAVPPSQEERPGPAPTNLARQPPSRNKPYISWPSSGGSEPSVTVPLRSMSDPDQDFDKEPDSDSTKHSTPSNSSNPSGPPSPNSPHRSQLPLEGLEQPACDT

For experiment [5], the target named is T5, 340 wild-type kinases (Homo sapiens, UniProt Q8IYT8).
T5 construct: purchased Reaction Biology Europe
T5 sequence (Q8IYT8 1-1036): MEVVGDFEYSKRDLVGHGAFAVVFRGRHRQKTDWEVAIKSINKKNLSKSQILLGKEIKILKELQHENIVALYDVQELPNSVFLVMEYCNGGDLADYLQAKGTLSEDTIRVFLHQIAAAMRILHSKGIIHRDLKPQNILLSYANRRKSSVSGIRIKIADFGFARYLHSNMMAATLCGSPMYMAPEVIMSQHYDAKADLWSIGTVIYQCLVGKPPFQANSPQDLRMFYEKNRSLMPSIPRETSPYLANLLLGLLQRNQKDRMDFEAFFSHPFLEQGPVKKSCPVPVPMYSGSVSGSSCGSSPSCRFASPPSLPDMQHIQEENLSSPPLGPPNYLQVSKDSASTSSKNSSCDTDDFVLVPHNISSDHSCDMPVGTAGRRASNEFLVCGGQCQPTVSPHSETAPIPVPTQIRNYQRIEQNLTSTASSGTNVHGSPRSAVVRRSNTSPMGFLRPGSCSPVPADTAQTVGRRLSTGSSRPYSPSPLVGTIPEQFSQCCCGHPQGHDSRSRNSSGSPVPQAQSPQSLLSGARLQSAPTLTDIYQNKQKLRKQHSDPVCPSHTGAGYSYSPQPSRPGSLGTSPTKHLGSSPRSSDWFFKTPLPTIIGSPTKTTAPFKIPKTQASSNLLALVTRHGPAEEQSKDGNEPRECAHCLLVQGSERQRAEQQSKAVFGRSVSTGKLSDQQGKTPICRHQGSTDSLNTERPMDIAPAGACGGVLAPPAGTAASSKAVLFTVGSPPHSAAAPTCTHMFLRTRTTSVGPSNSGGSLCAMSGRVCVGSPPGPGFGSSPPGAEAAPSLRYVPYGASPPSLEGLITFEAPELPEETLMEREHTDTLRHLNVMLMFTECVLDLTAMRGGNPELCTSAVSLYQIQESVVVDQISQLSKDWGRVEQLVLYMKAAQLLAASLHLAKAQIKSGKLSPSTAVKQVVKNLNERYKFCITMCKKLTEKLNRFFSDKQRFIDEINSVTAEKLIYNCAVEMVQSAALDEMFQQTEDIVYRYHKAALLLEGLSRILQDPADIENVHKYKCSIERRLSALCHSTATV

Like-named read-outs stand apart in the source and are kept apart here.

T1 sequence (Q9P289 whole entry): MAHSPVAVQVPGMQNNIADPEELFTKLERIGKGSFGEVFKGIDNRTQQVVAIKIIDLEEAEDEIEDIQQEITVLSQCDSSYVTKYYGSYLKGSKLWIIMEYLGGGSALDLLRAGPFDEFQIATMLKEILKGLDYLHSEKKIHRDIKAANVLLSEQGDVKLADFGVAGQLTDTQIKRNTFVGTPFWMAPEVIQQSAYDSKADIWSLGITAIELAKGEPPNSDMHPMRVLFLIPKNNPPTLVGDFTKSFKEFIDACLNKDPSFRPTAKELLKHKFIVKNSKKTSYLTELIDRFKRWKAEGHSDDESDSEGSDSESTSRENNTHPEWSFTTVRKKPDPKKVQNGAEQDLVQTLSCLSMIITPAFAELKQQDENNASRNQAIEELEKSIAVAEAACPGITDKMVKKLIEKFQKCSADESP

In the case of `CNC(=O)c1ccc2c(c1)C(=O)c1ccc(Nc3ccc(F)c(NC(=O)C4CC4)c3)cc1CC2` [Compound 2015], the remaining activity at 0.2 µM in experiment [1] (0.2 µM 2015, read-out: MST4 residual activity) came to 78.4%; in experiment [1] (MST4, 0.2 µM, read-out: residual activity), 78.3%; in experiment [2] (0.2 µM 2015, read-out: TAOK3 residual activity), 101%; in experiment [2] (TAOK3, 0.2 µM, read-out: residual activity), 101%; in experiment [3] (0.2 µM 2015, read-out: SNARK residual activity), 97%; in experiment [3] (SNARK, 0.2 µM, read-out: residual activity), 97%. Also, the remaining activity at 0.2 µM is 101% in experiment [4] (0.2 µM 2015, read-out: CDC42BPB residual activity); 101% in experiment [4] (CDC42BPB, 0.2 µM, read-out: residual activity); 105% in experiment [5] (0.2 µM 2015, read-out: ULK2 residual activity); 105% in experiment [5] (ULK2, 0.2 µM, read-out: residual activity). The remaining activity at 1 µM came out at 69.9% in experiment [1] (1 µM 2015, read-out: MST4 residual activity); 69.9% in experiment [1] (MST4, 1 µM, read-out: residual activity); 98.6% in experiment [2] (1 µM 2015, read-out: TAOK3 residual activity); 98.6% in experiment [2] (TAOK3, 1 µM, read-out: residual activity); 92.5% in experiment [3] (1 µM 2015, read-out: SNARK residual activity); 92.5% in experiment [3] (SNARK, 1 µM, read-out: residual activity). Also, the remaining activity at 1 µM in experiment [4] (1 µM 2015, read-out: CDC42BPB residual activity) worked out at 93.2%; in experiment [4] (CDC42BPB, 1 µM, read-out: residual activity), 93.2%; in experiment [5] (1 µM 2015, read-out: ULK2 residual activity) it was 87.8%; in experiment [5] (ULK2, 1 µM, read-out: residual activity), 87.8%.
